Literature values in patent US20230414496A1, “BIODEGRADABLE POLYMER-NANOPARTICLE BASED IMPLANTS FOR OCULAR DRUG DELIVERY” (priority 2020, published 2023).
Where two headings read alike, the source gives them in different places.

Legend:
[1] = 400 μg MTX intravitreal injection, pre-clinical study; read-out: peak MTX concentration (Cmax-MTX)
[2] = 400 μg MTX intravitreal injection

Cmax [1]: 400 µM
total duration of MTX release ([2]; clinical study and pre-clinical study): 2 to 6 days
Cmax ([2]; clinical study, read-out: peak MTX concentration (Cmax-MTX)): 360 µM
Structure (SMILES): CN(Cc1cnc2nc(N)nc(N)c2n1)c1ccc(C(=O)N[C@@H](CCC(=O)O)C(=O)O)cc1 [methotrexate]
